Measurements: US9181305B2, “Exendin-4 peptide analogues” (SANOFI, priority 2012, dated 2015)
*1 amine or outer side, *2 acyl side, *3 side chain or, on linkers, in order; H or OH if unused. Where a SMILES comes first, the peptide text is derived from it. Side-chain parts run from the residue outwards. [ ]: non-standard residue; d: D form. The star is where a group is joined. γGlu = O=C(O)[C@H](CCC(=O)[*:2])N[*:1]; Palmitoyl = CCCCCCCCCCCCCCCC(=O)*; Cha = N[C@@H](CC1CCCCC1)C(=O)O; Aib = CC(C)(N)C(=O)O; GABA = NCCCC(=O)O; βAla = NCCC(=O)O

Target: T1, human GLP-1 receptor (hGLP-1 R) (Homo sapiens, UniProt P43220)
T1 construct: expressed in transfected cells; host or cells: HEK-293
Assay: cAMP response (HTRF) of HEK-293 cells stably expressing human GLP-1 receptor
Format: cell-based
Settings: HEK-293 cells expressing human GLP-1 receptor, cAMP formation
Experimental: cAMP content of cells was determined using a kit from Cisbio Corp. (cat. no. 62AM4PEC) based on HTRF (Homogenous Time Resolved Fluorescence). For preparation, cells were split into T175 culture flasks and grown overnight to near confluency in medium (DMEM/10% FBS). Medium was then removed and cells washed with PBS lacking calcium and magnesium, followed by proteinase treatment with accutase (Sigma-Aldrich cat. no. A6964). Detached cells were washed and resuspended in assay buffer (1×HBSS; 20 mM HEPES, 0.1% BSA, 2 mM IBMX) and cellular density determined. […] For measurement, 25 μl of test compound in assay buffer was added to the wells, followed by incubation for 30 minutes at room temperature.

T1 sequence (P43220 24-463): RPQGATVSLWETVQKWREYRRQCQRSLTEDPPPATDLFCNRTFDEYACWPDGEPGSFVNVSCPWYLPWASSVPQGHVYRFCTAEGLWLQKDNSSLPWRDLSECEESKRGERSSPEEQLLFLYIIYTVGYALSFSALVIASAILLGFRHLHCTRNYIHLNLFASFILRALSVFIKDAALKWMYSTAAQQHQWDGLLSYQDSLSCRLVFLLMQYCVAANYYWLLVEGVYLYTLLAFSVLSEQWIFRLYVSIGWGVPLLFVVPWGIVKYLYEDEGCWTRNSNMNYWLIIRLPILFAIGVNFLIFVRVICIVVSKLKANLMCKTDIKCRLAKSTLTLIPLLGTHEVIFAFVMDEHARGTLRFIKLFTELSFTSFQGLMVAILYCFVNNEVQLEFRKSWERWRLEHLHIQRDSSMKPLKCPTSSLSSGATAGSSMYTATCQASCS

| SMILES | EC50 [pM] |
| --- | --- |
| CCCCCCCCCCCCCCCC(=O)NCCCC(=O)NCCCC[C@H](NC(=O)[C@H](CO)NC(=O)[C@@H]1CCCN1C(=O)[C@@H]1CCCN1C(=O)[C@@H]1CCCN1C(=O)[C@H](C)NC(=O)CNC(=O)[C@H](CO)NC(=O)[C@H](CO)NC(=O)[C@@H]1CCCN1C(=O)CNC(=O)CNC(=O)[C@H](CO)NC(=O)[C@H](CCCCN)NC(=O)[C@H](CC(C)C)NC(=O)[C@H](Cc1c[nH]c2ccccc12)NC(=O)[C@H](CCC(=O)O)NC(=O)[C@@H](NC(=O)[C@H](Cc1ccccc1)NC(=O)[C@H](CC(=O)O)NC(=O)[C@H](CCC(N)=O)NC(=O)[C@H](C)NC(=O)[C@H](CCCNC(=N)N)NC(=O)[C@H](CCCNC(=N)N)NC(=O)[C@H](CO)NC(=O)[C@H](CCC(=O)O)NC(=O)[C@H](CCSC)NC(=O)[C@H](CCC(N)=O)NC(=O)[C@H](CCCCN)NC(=O)[C@H](CO)NC(=O)[C@H](CC(C)C)NC(=O)[C@H](CC(=O)O)NC(=O)[C@H](CO)NC(=O)[C@@H](NC(=O)[C@H](Cc1ccccc1)NC(=O)[C@@H](NC(=O)CNC(=O)[C@H](CCC(N)=O)NC(=O)[C@@H](CO)NC(=O)[C@@H](N)Cc1c[nH]cn1)[C@@H](C)O)[C@@H](C)O)[C@@H](C)CC)C(N)=O [(125)] (H-H[dS]QGTFTSDLSKQMESRRAQDFIEWLKSGGPSSGAPPPSK([GABA-Palmitoyl])-NH2) | 10.8 |
| CCCCCCCCCCCCCCCC(=O)N[C@@H](CCC(=O)NCCCC[C@H](NC(=O)[C@H](CO)NC(=O)[C@@H]1CCCN1C(=O)[C@@H]1CCCN1C(=O)[C@@H]1CCCN1C(=O)[C@H](C)NC(=O)CNC(=O)[C@H](CO)NC(=O)[C@H](CO)NC(=O)[C@@H]1CCCN1C(=O)CNC(=O)CNC(=O)[C@H](C)NC(=O)[C@H](CCCCN)NC(=O)[C@H](CC(C)C)NC(=O)[C@H](Cc1c[nH]c2ccccc12)NC(=O)[C@H](CCC(=O)O)NC(=O)[C@@H](NC(=O)[C@H](Cc1ccccc1)NC(=O)[C@H](CC(=O)O)NC(=O)[C@H](CCC(N)=O)NC(=O)[C@H](C)NC(=O)[C@H](CCCNC(=N)N)NC(=O)[C@H](CCCNC(=N)N)NC(=O)[C@H](CO)NC(=O)[C@H](CCC(=O)O)NC(=O)[C@H](CC1CCCCC1)NC(=O)[C@H](CCC(N)=O)NC(=O)[C@H](CCCCN)NC(=O)[C@H](CO)NC(=O)[C@H](CC(C)C)NC(=O)[C@H](CC(=O)O)NC(=O)[C@H](CO)NC(=O)[C@@H](NC(=O)[C@H](Cc1ccccc1)NC(=O)[C@@H](NC(=O)CNC(=O)[C@H](CCC(N)=O)NC(=O)[C@@H](CO)NC(=O)[C@@H](N)Cc1c[nH]cn1)[C@@H](C)O)[C@@H](C)O)[C@@H](C)CC)C(N)=O)C(=O)O [(95)] (H-H[dS]QGTFTSDLSKQ[Cha]ESRRAQDFIEWLKAGGPSSGAPPPSK([γGlu-Palmitoyl])-NH2) | 6.7 |
| CCCCCCCCCCCCCCCC(=O)N[C@@H](CCC(=O)NCCCC[C@H](NC(=O)[C@H](CO)NC(=O)[C@@H]1CCCN1C(=O)[C@@H]1CCCN1C(=O)[C@@H]1CCCN1C(=O)[C@H](C)NC(=O)CNC(=O)[C@H](CO)NC(=O)[C@H](CO)NC(=O)[C@@H]1CCCN1C(=O)CNC(=O)CNC(=O)[C@H](CC(N)=O)NC(=O)[C@H](CCCCN)NC(=O)[C@H](CC(C)C)NC(=O)[C@H](Cc1c[nH]c2ccccc12)NC(=O)[C@H](CCC(=O)O)NC(=O)[C@@H](NC(=O)[C@H](Cc1ccccc1)NC(=O)[C@H](CC(=O)O)NC(=O)[C@H](CCC(N)=O)NC(=O)[C@H](C)NC(=O)[C@H](CCCNC(=N)N)NC(=O)[C@H](CCCNC(=N)N)NC(=O)[C@H](CCCCN)NC(=O)[C@H](CC(=O)O)NC(=O)[C@H](CCSC)NC(=O)[C@H](CCC(N)=O)NC(=O)[C@H](CCCCN)NC(=O)[C@H](CO)NC(=O)[C@H](CC(C)C)NC(=O)[C@H](CC(=O)O)NC(=O)[C@H](CO)NC(=O)[C@@H](NC(=O)[C@H](Cc1ccccc1)NC(=O)[C@@H](NC(=O)CNC(=O)[C@H](CCC(N)=O)NC(=O)[C@@H](CO)NC(=O)[C@@H](N)Cc1c[nH]cn1)[C@@H](C)O)[C@@H](C)O)[C@@H](C)CC)C(N)=O)C(=O)O [(69)] (H-H[dS]QGTFTSDLSKQMDKRRAQDFIEWLKNGGPSSGAPPPSK([γGlu-Palmitoyl])-NH2) | 7.6 |
| CCCCCCCCCCCCCCCC(=O)N[C@@H](CCC(=O)NCCCC[C@H](NC(=O)[C@H](CO)NC(=O)[C@@H]1CCCN1C(=O)[C@@H]1CCCN1C(=O)[C@@H]1CCCN1C(=O)[C@H](C)NC(=O)CNC(=O)[C@H](CO)NC(=O)[C@H](CO)NC(=O)[C@@H]1CCCN1C(=O)CNC(=O)CNC(=O)[C@H](CO)NC(=O)[C@H](CCCCN)NC(=O)[C@H](CC(C)C)NC(=O)[C@H](Cc1c[nH]c2ccccc12)NC(=O)[C@H](CCC(=O)O)NC(=O)[C@@H](NC(=O)[C@H](Cc1ccccc1)NC(=O)[C@H](CC(=O)O)NC(=O)[C@H](CCC(N)=O)NC(=O)[C@H](C)NC(=O)[C@H](C)NC(=O)[C@H](CCCNC(=N)N)NC(=O)[C@H](CO)NC(=O)[C@H](CCC(=O)O)NC(=O)[C@H](CCSC)NC(=O)[C@H](CCC(N)=O)NC(=O)[C@H](CCCCN)NC(=O)[C@H](CO)NC(=O)[C@H](CC(C)C)NC(=O)[C@H](CC(=O)O)NC(=O)[C@H](CO)NC(=O)[C@@H](NC(=O)[C@H](Cc1ccccc1)NC(=O)[C@@H](NC(=O)CNC(=O)[C@H](CCC(N)=O)NC(=O)[C@@H](CO)NC(=O)[C@@H](N)Cc1c[nH]cn1)[C@@H](C)O)[C@@H](C)O)[C@@H](C)CC)C(N)=O)C(=O)O [(103)] (H-H[dS]QGTFTSDLSKQMESRAAQDFIEWLKSGGPSSGAPPPSK([γGlu-Palmitoyl])-NH2) | 3.7 |
| CCCCCCCCCCCCCCCC(=O)N[C@@H](CCC(=O)NCCCC[C@H](NC(=O)[C@H](CO)NC(=O)[C@@H]1CCCN1C(=O)[C@@H]1CCCN1C(=O)[C@@H]1CCCN1C(=O)[C@H](C)NC(=O)CNC(=O)[C@H](CO)NC(=O)[C@H](CO)NC(=O)[C@@H]1CCCN1C(=O)CNC(=O)CNC(=O)[C@H](CC(N)=O)NC(=O)[C@H](CCCCN)NC(=O)[C@H](CC(C)C)NC(=O)[C@H](Cc1c[nH]c2ccccc12)NC(=O)[C@H](CCC(=O)O)NC(=O)[C@@H](NC(=O)[C@H](Cc1ccccc1)NC(=O)[C@H](CC(=O)O)NC(=O)[C@H](CCC(N)=O)NC(=O)[C@H](C)NC(=O)[C@H](CCCNC(=N)N)NC(=O)[C@H](CCCNC(=N)N)NC(=O)[C@H](CO)NC(=O)[C@H](CCC(=O)O)NC(=O)[C@H](CCSC)NC(=O)[C@H](CCC(N)=O)NC(=O)[C@H](CCCCN)NC(=O)[C@H](CO)NC(=O)[C@H](CC(C)C)NC(=O)[C@H](CC(=O)O)NC(=O)[C@H](CO)NC(=O)[C@@H](NC(=O)[C@H](Cc1ccccc1)NC(=O)[C@@H](NC(=O)CNC(=O)[C@H](CCC(N)=O)NC(=O)[C@@H](CO)NC(=O)[C@@H](N)Cc1c[nH]cn1)[C@@H](C)O)[C@@H](C)O)[C@@H](C)CC)C(N)=O)C(=O)O [(61)] (H-H[dS]QGTFTSDLSKQMESRRAQDFIEWLKNGGPSSGAPPPSK([γGlu-Palmitoyl])-NH2) | 4.2 |
| CCCCCCCCCCCCCCCC(=O)N[C@@H](CCC(=O)NCCCC[C@H](NC(=O)[C@H](CO)NC(=O)[C@@H]1CCCN1C(=O)[C@@H]1CCCN1C(=O)[C@@H]1CCCN1C(=O)[C@H](C)NC(=O)CNC(=O)[C@H](CO)NC(=O)[C@H](CO)NC(=O)[C@@H]1CCCN1C(=O)CNC(=O)CNC(=O)[C@H](C)NC(=O)[C@H](CCCCN)NC(=O)[C@H](CC(C)C)NC(=O)[C@H](Cc1c[nH]c2ccccc12)NC(=O)[C@H](CCC(=O)O)NC(=O)[C@@H](NC(=O)[C@H](Cc1ccccc1)NC(=O)[C@H](CC(=O)O)NC(=O)[C@H](CCC(N)=O)NC(=O)[C@H](C)NC(=O)[C@H](C)NC(=O)C(C)(C)NC(=O)[C@H](CO)NC(=O)[C@H](CCC(=O)O)NC(=O)[C@H](CCSC)NC(=O)[C@H](CCC(N)=O)NC(=O)[C@H](CCCCN)NC(=O)[C@H](CO)NC(=O)[C@H](CC(C)C)NC(=O)[C@H](CC(=O)O)NC(=O)[C@H](CO)NC(=O)[C@@H](NC(=O)[C@H](Cc1ccccc1)NC(=O)[C@@H](NC(=O)CNC(=O)[C@H](CCC(N)=O)NC(=O)[C@@H](CO)NC(=O)[C@@H](N)Cc1c[nH]cn1)[C@@H](C)O)[C@@H](C)O)[C@@H](C)CC)C(N)=O)C(=O)O [(111)] (H-H[dS]QGTFTSDLSKQMES[Aib]AAQDFIEWLKAGGPSSGAPPPSK([γGlu-Palmitoyl])-NH2) | 4.1 |
| CCCCCCCCCCCCCCCC(=O)NCCC(=O)NCCC(=O)NCCCC[C@H](NC(=O)[C@H](CO)NC(=O)[C@@H]1CCCN1C(=O)[C@@H]1CCCN1C(=O)[C@@H]1CCCN1C(=O)[C@H](C)NC(=O)CNC(=O)[C@H](CO)NC(=O)[C@H](CO)NC(=O)[C@@H]1CCCN1C(=O)CNC(=O)CNC(=O)[C@H](CO)NC(=O)[C@H](CCCCN)NC(=O)[C@H](CC(C)C)NC(=O)[C@H](Cc1c[nH]c2ccccc12)NC(=O)[C@H](CCC(=O)O)NC(=O)[C@@H](NC(=O)[C@H](Cc1ccccc1)NC(=O)[C@H](CC(=O)O)NC(=O)[C@H](CCC(N)=O)NC(=O)[C@H](C)NC(=O)[C@H](CCCNC(=N)N)NC(=O)[C@H](CCCNC(=N)N)NC(=O)[C@H](CO)NC(=O)[C@H](CCC(=O)O)NC(=O)[C@H](CCSC)NC(=O)[C@H](CCC(N)=O)NC(=O)[C@H](CCCCN)NC(=O)[C@H](CO)NC(=O)[C@H](CC(C)C)NC(=O)[C@H](CC(=O)O)NC(=O)[C@H](CO)NC(=O)[C@@H](NC(=O)[C@H](Cc1ccccc1)NC(=O)[C@@H](NC(=O)CNC(=O)[C@H](CCC(N)=O)NC(=O)[C@@H](CO)NC(=O)[C@@H](N)Cc1c[nH]cn1)[C@@H](C)O)[C@@H](C)O)[C@@H](C)CC)C(N)=O [(98)] (H-H[dS]QGTFTSDLSKQMESRRAQDFIEWLKSGGPSSGAPPPSK([βAla-βAla-Palmitoyl])-NH2) | 5.1 |
